Results reported in US9145392B2, “Imidazole amines as modulators of kinase activity” (Merck Patent GmbH, priority 2011, dated 2015).
pIC50: −log10 of the molar value.

Tests used:
[1] = target: P70S6K (T412E mutant) (Homo sapiens (Human), UniProt P23443, T412E); assay: P70S6K enzyme assay; assay type: biochemical; conditions: read-out: IC50 p70S6K
In short: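 Read-out is the substrate/phosphopeptide ratio from mobility-shift electrophoresis on a LabChip 3000.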

[2] = target: His-AKT (Full Length) (Homo sapiens (Human), UniProt P31749); assay: AKT enzyme assay; assay type: biochemical; conditions: read-out: IC50 AKT
Sequence of His-AKT (Full Length) (P31749 whole entry): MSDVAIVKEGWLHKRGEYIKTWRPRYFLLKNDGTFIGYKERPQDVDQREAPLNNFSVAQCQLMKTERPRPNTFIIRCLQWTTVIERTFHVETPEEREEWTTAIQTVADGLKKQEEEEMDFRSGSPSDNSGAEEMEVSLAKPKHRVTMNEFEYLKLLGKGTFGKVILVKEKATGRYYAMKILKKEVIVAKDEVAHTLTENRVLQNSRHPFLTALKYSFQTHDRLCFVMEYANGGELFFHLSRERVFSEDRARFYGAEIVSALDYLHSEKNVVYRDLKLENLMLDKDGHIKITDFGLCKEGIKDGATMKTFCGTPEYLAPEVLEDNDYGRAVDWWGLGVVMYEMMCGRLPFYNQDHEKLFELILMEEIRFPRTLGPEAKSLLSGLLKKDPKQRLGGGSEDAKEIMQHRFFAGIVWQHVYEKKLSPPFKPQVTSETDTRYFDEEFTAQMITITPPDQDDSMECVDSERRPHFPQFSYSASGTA

Sequence of P70S6K (T412E mutant) (P23443 whole entry T412E): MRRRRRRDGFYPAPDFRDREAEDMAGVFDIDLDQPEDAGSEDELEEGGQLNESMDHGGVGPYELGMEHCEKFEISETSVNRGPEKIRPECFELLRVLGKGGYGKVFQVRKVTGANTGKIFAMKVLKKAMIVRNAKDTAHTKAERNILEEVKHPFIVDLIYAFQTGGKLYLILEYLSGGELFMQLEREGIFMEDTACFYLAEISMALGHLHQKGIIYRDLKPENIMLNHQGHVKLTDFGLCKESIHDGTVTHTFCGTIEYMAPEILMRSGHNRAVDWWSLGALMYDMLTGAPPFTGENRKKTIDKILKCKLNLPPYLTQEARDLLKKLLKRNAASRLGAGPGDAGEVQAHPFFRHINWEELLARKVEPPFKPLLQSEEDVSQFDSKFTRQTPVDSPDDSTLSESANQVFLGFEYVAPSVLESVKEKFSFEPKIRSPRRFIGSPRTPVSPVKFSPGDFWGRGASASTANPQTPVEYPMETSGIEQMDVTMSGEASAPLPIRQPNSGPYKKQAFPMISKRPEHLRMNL

SMILES | pIC50 [1] | pIC50 [2]
Nc1ncnc(N2CCC(c3nc(-c4ccc(C(F)(F)F)c(F)c4)cn3CCN3CCCC3)CC2)c1C1CCC1 [Compound 254] | 8.09 | 8.04
Nc1ncnc(N2CCC(c3nc(-c4ccc(F)c(F)c4)cn3CCN3CCCC3)CC2)c1C1CCC1 [Compound 255] | 8.16 | 8.03
Nc1ncnc(N2CCC(c3nc(-c4ccc(F)cc4)cn3CCN3CCCC3)CC2)c1C1CCC1 [Compound 256] | 8.19 | 7.96
Nc1ncnc(N2CCC(c3nc(-c4cccc(F)c4)cn3CCN3CCCC3)CC2)c1C1CCC1 [Compound 257] | 8.40 | 7.70
Nc1ncnc(N2CCC(c3nc(-c4ccc(C(F)(F)F)c(F)c4)cn3CCN3CCCC3)CC2)c1C1CCC1 [Compound 258] | 7.44 | 6.42
Nc1ncnc(N2CCC(c3nc(-c4ccc(C(F)(F)F)cc4)cn3CCN3CCCC3)CC2)c1C1CCC1 [Compound 259] | 7.43 | 6.37
Nc1ncnc(N2CCC(c3nc(-c4ccc(Cl)c(F)c4)cn3CCN3CCCC3)CC2)c1C1CCC1 [Compound 260] | 7.68 | 7.17
Nc1ncnc(N2CCC(c3nc(-c4cccc(C(F)(F)F)c4)cn3CCN3CCCC3)CC2)c1C1CCC1 [Compound 261] | 8.20 | 8.09
Nc1ncnc(N2CCC(c3nc(-c4ccc(F)c(Cl)c4)cn3CCN3CCCC3)CC2)c1C1CCC1 [Compound 262] | 8.40 | 8.31
Nc1ncnc(N2CCC(c3nc(-c4ccc(Cl)cc4)cn3CCN3CCCC3)CC2)c1C1CCC1 [Compound 263] | 7.60 | 7.10
Nc1ncnc(N2CCC(c3nc(-c4cccc(Cl)c4)cn3CCN3CCCC3)CC2)c1C1CCC1 [Compound 264] | 8.39 | 8.21
Nc1ncnc(N2CCC(c3nc(-c4ccc(C(F)(F)F)cc4)cn3CCN3CCCC3)CC2)c1Br [Compound 265] | 8.21 | 6.96
Nc1ncnc(N2CCC(c3nc(-c4ccc(Cl)c(F)c4)cn3CCN3CCCC3)CC2)c1Br [Compound 266] | 8.48 | 7.80
Nc1ncnc(N2CCC(c3nc(-c4cccc(C(F)(F)F)c4)cn3CCN3CCCC3)CC2)c1Br [Compound 267] | 8.66 | 8.38
Nc1ncnc(N2CCC(c3nc(-c4ccc(F)c(Cl)c4)cn3CCN3CCCC3)CC2)c1Br [Compound 268] | 8.85 | 8.74
C=Cc1c(N)ncnc1N1CCC(c2nc(-c3ccc(C(F)(F)F)cc3)cn2CCN2CCCC2)CC1 [Compound 269] | 8.00 | 6.72
Nc1cc(N2CCC(c3nc(-c4ccc(C(F)(F)F)cc4)cn3CCN3CCCC3)CC2)ncn1 [Compound 270] | 6.44 | 6.00
CCc1c(N)ncnc1N1CCC(c2nc(-c3ccc(C(F)(F)F)cc3)cn2CCN2CCCC2)CC1 [Compound 271] | 7.92 | 6.74
CCc1c(N)ncnc1N1CCC(c2nc(-c3cccc(C(F)(F)F)c3)cn2CCN2CCCC2)CC1 [Compound 272] | 8.46 | 8.02
CCc1c(N)ncnc1N1CCC(c2nc(-c3ccc(Cl)cc3)cn2CCN2CCCC2)CC1 [Compound 273] | 8.13 | 6.72
CCc1c(N)ncnc1N1CCC(c2nc(-c3cccc(Cl)c3)cn2CCN2CCCC2)CC1 [Compound 274] | 8.82 | 7.92

SMILES | pIC50 [1] | pIC50 [2]
CCc1c(N)ncnc1N1CCC(c2nc(-c3ccc(F)c(C(F)(F)F)c3)cn2CCN2CCC(F)(F)C2)CC1 [Compound 275] | 8.55 | 6.37
CCc1c(N)ncnc1N1CCC(c2nc(-c3ccc(F)c(C(F)(F)F)c3)cn2CCN2CCCCC2)CC1 [Compound 276] | 8.55 | 8.03
CCc1c(N)ncnc1N1CCC(c2nc(-c3cccc(C(F)(F)F)c3)cn2CCN2CCC2)CC1 [Compound 277] | 8.49 | 7.74
CCc1c(N)ncnc1N1CCC(c2nc(-c3cccc(F)c3)cn2CCN2CCC2)CC1 [Compound 278] | 8.34 | 7.10
CCc1c(N)ncnc1N1CCC(c2nc(-c3cccc(Cl)c3)cn2CCN2CCC2)CC1 [Compound 279] | 8.62 | 7.80
Nc1ncnc(N2CCC(c3nc(-c4ccc(C(F)(F)F)c(F)c4)cn3CCN3CCC3)CC2)c1C1CCC1 [Compound 280] | 8.22 | 8.14
CCc1c(N)ncnc1N1CCC(c2nc(-c3ccc(F)c(Cl)c3)cn2CCN2CCC2)CC1 [Compound 281] | 8.41 | 8.04
CCc1c(N)ncnc1N1CCC(c2nc(-c3ccc(F)c(F)c3)cn2CCN2CCC2)CC1 [Compound 282] | 8.42 | 7.62
Nc1ncnc(N2CCC(c3nc(-c4ccc(F)c(C(F)(F)F)c4)cn3CCN3CCC3)CC2)c1[N+](=O)[O-] [Compound 283] | 8.85 | 8.57
Nc1ncnc(N2CCC(c3nc(-c4ccc(F)c(C(F)(F)F)c4)cn3CCN3CCC3)CC2)c1N [Compound 284] | 7.97 | 7.29
Nc1ncnc(N2CCC(c3nc(-c4ccc(F)c(C(F)(F)F)c4)cn3CCN3CCC3)CC2)c1C=O [Compound 285] | 9.00 | 8.85
Nc1ncnc(N2CCC(c3nc(-c4ccc(F)c(C(F)(F)F)c4)cn3CCN3CCCC3)CC2)c1C(=O)O [Compound 286] | 6.87 | 6.14
Nc1ncnc(N2CCC(c3nc(-c4ccc(F)c(C(F)(F)F)c4)cn3CCN3CCCC3)CC2)c1C=O [Compound 287] | 9.22 | 9.00
CC(=O)Nc1c(N)ncnc1N1CCC(c2nc(-c3ccc(F)c(C(F)(F)F)c3)cn2CCN2CCC2)CC1 [Compound 288] | 7.68 | 6.72
CC(C)Oc1c(N)ncnc1N1CCC(c2nc(-c3ccc(F)c(Cl)c3)cn2CCN2CCCC2)CC1 [Compound 290] | 8.89 | 8.70
CCOc1c(N)ncnc1N1CCC(c2nc(-c3ccc(F)c(C(F)(F)F)c3)cn2CCN(C)C)CC1 [Compound 291] | 8.59 | 8.10
CC(C)Oc1c(N)ncnc1N1CCC(c2nc(-c3ccc(F)c(C(F)(F)F)c3)cn2CCN(C)C)CC1 [Compound 292] | 8.47 | 8.12
CCOc1c(N)ncnc1N1CCC(c2nc(-c3ccc(F)c(C)c3)cn2CCN(C)C)CC1 [Compound 293] | 9.00 | 8.77
Cc1cc(-c2cn(CCN(C)C)c(C3CCN(c4ncnc(N)c4OC(C)C)CC3)n2)ccc1F [Compound 294] | 8.89 | 8.72
CCc1c(N)ncnc1N1CCC(c2nc(-c3ccc(F)c(C)c3)cn2CCN(C)C)CC1 [Compound 295] | 8.39 | 7.64
CCc1c(N)ncnc1N1CCC(c2nc(-c3ccc(F)c(C)c3)cn2CCN(CC)CC)CC1 [Compound 296] | 8.80 | 8.59

SMILES | pIC50 [1] | pIC50 [2]
CCc1c(N)ncnc1N1CCC(c2nc(-c3ccc(F)c(C)c3)cn2CCN2CCCC2)CC1 [Compound 297] | 8.41 | 8.18
CCOc1c(N)ncnc1N1CCC(c2nc(-c3ccc(F)c(C)c3)cn2CCN2CCCC2)CC1 [Compound 298] | 8.17 | 8.18
Cc1cc(-c2cn(CCN3CCCC3)c(C3CCN(c4ncnc(N)c4OC(C)C)CC3)n2)ccc1F [Compound 299] | 8.00 | 8.05
CCc1c(N)ncnc1N1CCC(c2nc(-c3ccc(F)c(C)c3)cn2CCN(CC)C(C)C)CC1 [Compound 300] | 8.51 | 8.05
CCN(CCn1cc(-c2ccc(F)c(C)c2)nc1C1CCN(c2ncnc(N)c2OC(C)C)CC1)C(C)C [Compound 302] | 7.92 | 8.20
CCOc1c(N)ncnc1N1CCC(c2nc(-c3ccc(F)c(C)c3)cn2CCN(CC)CC)CC1 [Compound 303] | 8.62 | 9.10
CCN(CC)CCn1cc(-c2ccc(F)c(C)c2)nc1C1CCN(c2ncnc(N)c2OC(C)C)CC1 [Compound 304] | 8.34 | 8.59
N#Cc1c(N)ncnc1N1CCC(c2nc(-c3ccc(F)c(C(F)(F)F)c3)cn2CCN2CCCC2)CC1 [Compound 305] | 8.72 | 8.49
N#Cc1c(N)ncnc1N1CCC(c2nc(-c3ccc(F)c(F)c3)cn2CCN2CCCC2)CC1 [Compound 306, 4-amino-6{4-(3,4-difluorophenyl-1-2-(pyrrolidin-1-yl-ethyl)-1H-imidazol-2-yl]-piperidin-1-yl}-pyrimidin-5-carbonitrile] | 8.70 | 8.12
N#Cc1c(N)ncnc1N1CCC(c2nc(-c3ccc(F)c(Cl)c3)cn2CCN2CCCC2)CC1 [Compound 307] | 9.10 | 8.82
N#Cc1c(N)ncnc1N1CCC(c2nc(-c3ccc(F)cc3)cn2CCN2CCCC2)CC1 [Compound 308] | 8.59 | 7.89
N#Cc1c(N)ncnc1N1CCC(c2nc(-c3cccc(F)c3)cn2CCN2CCCC2)CC1 [Compound 309] | 8.59 | 7.68
N#Cc1c(N)ncnc1N1CCC(c2nc(-c3cccc(C(F)(F)F)c3)cn2CCN2CCCC2)CC1 [Compound 310] | 8.64 | 8.12
N#Cc1c(N)ncnc1N1CCC(c2nc(-c3cccc(Cl)c3)cn2CCN2CCCC2)CC1 [Compound 311] | 8.64 | 8.08
N#Cc1c(N)ncnc1N1CCC(c2nc(-c3ccc(F)c(C(F)(F)F)c3)cn2CCN2CCCCC2)CC1 [Compound 312] | 8.72 | 8.64
N#Cc1c(N)ncnc1N1CCC(c2nc(-c3ccc(F)c(F)c3)cn2CCN2CCC2)CC1 [Compound 313] | 8.80 | 8.03
N#Cc1c(N)ncnc1N1CCC(c2nc(-c3ccc(OC(F)F)c(F)c3)cn2CCN2CCC2)CC1 [Compound 314] | 8.74 | 8.39
N#Cc1c(N)ncnc1N1CCC(c2nc(-c3cc[nH]c(=O)c3)cn2CCN2CCC2)CC1 [Compound 315] | 7.00 | 6.30
Cc1ccc(-c2cn(CCN3CCC3)c(C3CCN(c4ncnc(N)c4C#N)CC3)n2)cc1C(F)(F)F [Compound 316] | 9.10 | 7.62
